Key:
[1] = tested on: mouse red blood cells (RBCs)
Source text: Hemolysis was given as HC50 where the concentration of a polymer causes 50% lysis of RBCs. […] RBC in PBS was used as the negative control to subtract any background signals.

[2] = tested on: MDR-P. aeruginosa; test: Resistance development study, serial passaging at sub-MIC; assay type: cell-based, Pseudomonas aeruginosa; conditions: 14 passages over 2 weeks
Experimental: (§1) The resistance development study was performed following the protocol published earlier. […] To compare the result, the last-resort gram-negative antibiotics, Polymyxin-B, and carbapenem type, Imipenem, were used in the study. According to the protocol elaborated for the MIC assay above, the MIC values of compounds and antibiotics were determined against corresponding bacteria overnight. The next day, a new MIC assay was performed where the bacterial suspension was prepared from the bacteria grown at the sub-MIC (MIC/2) of compound concentration of the first-day experiment. The next 14 continuous passages were repeated as described above. The resistance development was calculated as the fold increase of MIC by dividing MIC to the initial MIC values of every passage and then plotted against the passage number. These experiments were performed in triplicate.
(§2) MDR bacteria employ various strategies inherently or adaptively to build up resistance, which becomes a serious health concern. […] Bacteria were exposed to continuous serial passaging at the sub-MIC level over 2 weeks. Antibiotics imipenem and polymyxin-B were used as controls.

[3] = tested on: MDR-K. pneumoniae; test: as above; assay type: cell-based, Klebsiella pneumoniae; conditions: 14 passages over 2 weeks
Experimental: as §1, §2

[4] = tested on: MDR-P. aeruginosa biofilm; test: Biofilm eradication, quantification through bacterial cell viability; assay type: cell-based, Pseudomonas aeruginosa; conditions: 16×MIC
Experimental: (§3) 18 mm glass coverslips were sterilized with flame after rinsing with ethanol. The bacterial biofilms were grown by following the previously published protocol. After the preparation of mid-log grown MDR-P. aeruginosa bacteria in TSB media, bacteria concentration was adjusted in NB with 1% (w/v) glucose and 1% (w/v) NaCl supplements to ˜10^5 CFU/mL. 2 mL of the diluted bacterial cell culture was used to fill the 6-well plate and 18 mm sterilized glass coverslips were added to each well. The plate was incubated at 37° C. for 72 h. After 72 h, 1×PBS (pH=7.4) was used to wash away unadhered planktonic bacteria. The carefully washed coverslips containing surface-attached biofilms were placed into a new 6-well sterile plate. Later, various concentration of 1-QAC-Hex (2 mL) was added into the wells and incubated for 24 h. Polymyxin-B was used as a control antibiotic. As a negative control, 2 mL of media was added without compound. The following three experiments were adjusted in the further steps as follows.
Once again, coverslips were washed with 1×PBS and transferred to another new, sterile plate. Afterward, 2 mL of trypsin-EDTA solution (diluted in saline at a 1:10 ratio) was added to each well and incubated for 15 min. Samples of 20 μL of each concentration were then 10-fold serially diluted in 1×PBS. […]

[5] = tested on: MDR-P. aeruginosa biofilm; test: Biofilm eradication, confocal fluorescence microscopy (SYTO 9/PI, Z-stack); assay type: cell-based, Pseudomonas aeruginosa
Experimental: as §3
Coverslips were washed with 1×PBS and left to dry for 2 min. MDR-P. aeruginosa biofilm was simultaneously stained with equal volumes of (5 μL) SYTO 9 (60 μM) and PI (15 μM) and was placed on the slide immediately followed by incubation in darkness for 15 min. The glass coverslips images on the slide were captured with a Zeiss LSM 410 Confocal Laser Scanning Microscope in 40× magnification. […]

Triton-X 100
lysis of RBCs [1]: 100%

C[C@@H](O)[C@H]1C(=O)N2C(C(=O)O)=C(SCCN=CN)C[C@H]12 [imipenem]
change in MIC after serial passaging [2]: 16 fold
change in MIC after serial passaging [3]: 16 fold

polymyxin-B
killing of viable bacteria within the biofilm, in words [4]: unable to kill the viable bacteria protected within the biofilm
thickness of biofilm ([5]; 16×MIC, control 9.96 μm): 9.03 μm
live/dead cells in biofilm after treatment ([5]; polymyxin-B 16×MIC, 3-QAC-Hex 16×MIC and 32×MIC): a large amount of live cells
change in MIC after serial passaging [2]: 8 fold
change in MIC after serial passaging [3]: 16 fold

Source: patent publication US20250360162A1, “Naphthoic Acid-Derived Polymers as Antimicrobial Agents” (UNIVERSITY OF SOUTH CAROLINA, priority 2024, published 2025)
